molecular target: T1, Recombinant human DGAT2 protein (Homo sapiens, UniProt Q96PD7); assay: Measurement of inhibitory effect against DGAT2 enzyme activity (SPA, Phospholipid FlashPlate, [14C]-TG production); format: biochemical; settings: concentration inhibiting [14C]-labeled triacyl glycerol (TG) production by 50%; 2 μg DGAT2-membrane protein from Sf-21 cells, 37° C.
T1 construct: FLAG (DYKDDDDK); (N); made in house; host or cells: Sf-21 insect cells (BacPAK baculovirus system); used as a membrane preparation
T1 sequence (Q96PD7 1-388): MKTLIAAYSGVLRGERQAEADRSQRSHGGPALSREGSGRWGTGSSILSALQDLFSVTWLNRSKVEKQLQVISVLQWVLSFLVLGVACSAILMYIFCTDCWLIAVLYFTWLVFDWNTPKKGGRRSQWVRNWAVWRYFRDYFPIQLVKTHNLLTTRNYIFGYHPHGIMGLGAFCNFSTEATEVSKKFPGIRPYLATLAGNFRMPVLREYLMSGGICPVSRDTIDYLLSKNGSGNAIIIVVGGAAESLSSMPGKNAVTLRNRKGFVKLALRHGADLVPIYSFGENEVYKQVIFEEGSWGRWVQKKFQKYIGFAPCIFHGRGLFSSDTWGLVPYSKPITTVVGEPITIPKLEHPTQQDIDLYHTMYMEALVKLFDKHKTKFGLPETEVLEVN
Procedure: Experimental Example: Measurement of Inhibitory Effect Against DGAT2 Enzyme Activity
In order to prepare the pBacPAK9-DGAT2, which is DGAT2 expression vector, the human DGAT2 gene amplified by polymerase chain reaction (PCR) was cloned into the EcoR1 and Xho1 sites of the pBacPAK9 (clonctech) vector. The nucleotide sequence of the primers used in PCR was the forward primer 5′ […] and the reverse primer 5′ […]. The composition of the reaction solution was to contain 50 ng of cDNA clone (OriGene), 200 μM of dATP, dCTP, dTTP, dGTP, 200 nM of each primer, 1 unit of Tag DNA Polymerase (Toyobo), 1×PCR buffer, and the final volume was adjusted to 20 μl. The reaction conditions were denatured at 95° C. for 5 minutes, followed by 30 times of 94° C. for 20 seconds, 60° C. for 20 seconds, and 72° C. for 90 seconds, followed by further reaction at 72° C. for 7 minutes.
Recombinant human DGAT2 protein was expressed in Sf-21 cells, which are insect cells, by using the BacPack baculovirus expression system (Clontech). The brief manufacturing process is as follows. First, the pBacPAK9-DGAT2 expression vector was transfected with BacPAK6 virus DNA (Bsu36I digest) into sf21 cells using Bacfectin to prepare a recombinant DGAT2 expressing baculovirus. The thus prepared baculovirus was infected with Sf-21 cells at 10 MOI (multiplicity of infection), and after 72 hours, infected insect cells were collected and membrane proteins were isolated. For membrane protein separation, the cell pellet was dissolved in a sucrose solution containing 250 mM sucrose, 10 mM Tris (pH 7.4), and 1 mM ethylenediamine-tetraacetic acid (EDTA), and then homogenized by using a dounce homogenizer, and the supernatant was taken by centrifuging at 600×g for 15 minutes, and centrifuged at 100,000×g for 1 hour to discard the supernatant, and the remaining pellet was resuspended in 20 mM HEPES buffer (pH 7.4). The prepared DGAT2 overexpressing membrane protein was dispensed in 100 μl and stored at −80° C. until use. Protein concentration was quantified by using the BCA Protein Assay Kit (Thermo Scientific).
In vitro DGAT2 analysis was performed using a Phospholipid Flash Plate (PerkinElmer) based on the principle of SPA (Scintillation Proximity Assay). First, DGAT2 inhibition compounds serially diluted 5 times from 3 nM to 10 μM (final concentration, 1% DMSO) were mixed in a buffer solution containing 2 μg DGAT2-membrane protein and 20 mM HEPES, 20 mM MgCl2, 1 mg/mL BSA, 50 μM 1,2 sn-oleoyl glycerol (Sigma), put in a 96-well flash plate (FlashPlate) and reacted at 37° C. for 20 minutes, and then 1 μM [14C] ole oil CoA (PerkinElmer, NEC651050UC) was added to be a final volume of 100 μL and further reacted at 37° C. for 15 minutes. After the enzymatic reaction was completed, 100 μL of isopropanol was added, the plate was sealed with a film, and the plate was shaken slowly in a plate shaker. The next day, the amplified scintillation signal (cpm) in Topcounter (Packard) was measured to measure the degree of production of [14C]-labeled triacyl glycerol (TG) as a reaction product. The measured value when the compound was not treated was used as a positive control, and the measured value of the compound treated group was calculated as a relative % to measure the inhibition effect of the compound on TG production.

Row | IC50 [µM] | Compound
1 | 0.025 | CCOc1ccccc1O[C@@H]1CCCN(c2cncc(NC(=O)C3CCN(S(C)(=O)=O)CC3)n2)C1 [Example 15]
2 | 12 | CCOc1ccccc1O[C@@H]1CCCN(c2cncc(NC(=O)c3ccc(OC(C)(C)C(=O)O)cc3)n2)C1 [Example 14, (R)-2-(4-((6-(3-(2-ethoxyphenoxy)piperidin-1-yl)pyrazin-2-yl)carbamoyl)phenoxy)-2-methylpropanoic acid]
3 | 0.59 | CCOc1ccccc1O[C@@H]1CCCN(c2cncc(NC(=O)COc3ccc(CC(=O)O)cc3)n2)C1 [Example 100, (R)-2-(4-(2-((6-(3-(2-ethoxyphenoxy)piperidin-1-yl)pyrazin-2-yl)amino)-2-oxoethoxy)phenyl)acetic acid]
4 | 7.5 | CCOc1ccccc1O[C@@H]1CCCN(c2cncc(NC(=O)c3cc(F)c(N4CCC(CC(=O)O)CC4)c(F)c3)n2)C1 [Example 58]
5 | 0.33 | CCOc1ccccc1O[C@@H]1CCCN(c2nccc(NC(=O)C(C)(C)c3ccc(CC(C)(C)C(=O)O)cc3)n2)C1 [Example 124, (R)-3-(4-(1-((2-(3-(2-ethoxyphenoxy)piperidin-1-yl)pyrimidin-4-yl)amino)-2-methyl-1-oxopropan-2-yl)phenyl)-2,2-dimethylpropanoic acid]
6 | 0.01 | CCOc1ccccc1O[C@@H]1CCCN(c2cncc(NC(=O)C3CCN(S(=O)(=O)C(C)C)CC3)n2)C1 [Example 17, (R)—N-(6-(3-(2-ethoxyphenoxy)piperidin-1-yl)pyrazin-2-yl)-1-(isopropylsulfonyl)piperidine-4-carboxamide]
7 | 2.9 | CCOc1ccccc1O[C@@H]1CCCN(c2cncc(NC(=O)Cc3ccc(OCC(=O)O)cc3)n2)C1 [Example 99]
8 | 5.3 | CCOc1ccccc1O[C@@H]1CCCN(c2cncc(NC(=O)c3cc(F)c(N4CCC(C(=O)O)CC4)c(F)c3)n2)C1 [Example 57]
9 | 0.42 | CCOc1ccccc1O[C@@H]1CCCN(c2cncc(NC(=O)CCc3ccc(OC(C)(C)C(=O)O)cc3)n2)C1 [Example 60, (R)-2-(4-(3-((6-(3-(2-ethoxyphenoxy)piperidin-1-yl)pyrazin-2-yl)amino)-3-oxopropyl)phenoxy)-2-methylpropanoic acid]
10 | 0.042 | CCOc1ccccc1O[C@@H]1CCCN(c2cncc(NC(=O)[C@@H]3CCCN(c4cccc(CC(C)(C)C(=O)O)c4)C3)n2)C1 [Example 85, 3-(3-((R)-3-((6-((R)-3-(2-ethoxyphenoxy)piperidin-1-yl)pyrazin-2-yl)carbamoyl)piperidin-1-yl)phenyl)-2,2-dimethylpropanoic acid]
11 | 1.1 | CCOc1ccccc1O[C@@H]1CCCN(c2cncc(NC(=O)Cc3ccc(CC(=O)O)cc3)n2)C1 [Example 34, (R)-2-(4-(2-((6-(3-(2-ethoxyphenoxy)piperidin-1-yl)pyrazin-2-yl)amino)-2-oxoethyl)phenyl)acetic acid]
12 | 0.73 | CCOc1ccccc1O[C@@H]1CCCN(c2nccc(NC(=O)Cc3ccc(OC(C)(C)C(=O)O)cc3)n2)C1 [Example 106, (R)-2-(4-(2-((2-(3-(2-ethoxyphenoxy)piperidin-1-yl)pyrimidin-4-yl)amino)-2-oxoethyl)phenoxy)-2-methylpropanoic acid]
13 | 1.6 | CCOc1ccccc1O[C@@H]1CCCN(c2cncc(NC(=O)N3CCCC3)n2)C1 [Example 4, (R)—N-(6-(3-(2-ethoxyphenoxy)piperidin-1-yl)pyrazin-2-yl)pyrrolidine-1-carboxamide]
14 | 1.1 | CCOc1ccccc1O[C@@H]1CCCN(c2nccc(NC(=O)CCc3ccc(OC(C)(C)C(=O)O)cc3)n2)C1 [Example 109, (R)-2-(4-(3-((2-(3-(2-ethoxyphenoxy)piperidin-1-yl)pyrimidin-4-yl)amino)-3-oxopropyl)phenoxy)-2-methylpropanoic acid]
15 | 0.38 | CCOc1ccccc1O[C@@H]1CCCN(c2cncc(NC(=O)c3cccc(-c4ccc(CC(C)(C)C(=O)O)cc4)c3)n2)C1 [Example 130, (R)-3-(3′-((6-(3-(2-ethoxyphenoxy)piperidin-1-yl)pyrazin-2-yl)carbamoyl)-[1,1′-biphenyl]-4-yl)-2,2-dimethylpropanoic acid]
16 | 0.41 | CCOc1ccccc1O[C@@H]1CCCN(c2ccnc(NC(=O)C(C)(C)c3ccc(CC(C)(C)C(=O)O)cc3)n2)C1 [Example 77, (R)-3-(4-(1-((4-(3-(2-ethoxyphenoxy)piperidin-1-yl)pyrimidin-2-yl)amino)-2-methyl-1-oxopropan-2-yl)phenyl)-2,2-dimethylpropanoic acid]
17 | 0.035 | CCOc1cccnc1O[C@@H]1CCCN(c2cncc(NC(=O)C(C)(C)c3ccc(CC(C)(C)C(=O)O)cc3)n2)C1 [Example 125, (R)-3-(4-(1-((6-(3-((3-ethoxypyridin-2-yl)oxy)piperidin-1-yl)pyrazin-2-yl)amino)-2-methyl-1-oxopropan-2-yl)phenyl)-2,2-dimethylpropanoic acid]
18 | 0.09 | CCOc1ccccc1O[C@@H]1CCCN(c2cncc(NC(=O)c3ccc(OC)cc3)n2)C1 [Example 9, (R)—N-(6-(3-(2-ethoxyphenoxy)piperidin-1-yl)pyrazin-2-yl)-4-methoxybenzamide]
19 | 0.066 | CCOc1ccccc1O[C@@H]1CCCN(c2cncc(NC(=O)CCc3ccc(C4(C(=O)O)CC4)cc3)n2)C1 [Example 52, (R)-1-(4-(3-((6-(3-(2-ethoxyphenoxy)piperidin-1-yl)pyrazin-2-yl)amino)-3-oxopropyl)phenyl)cyclopropane-1-carboxylic acid]
20 | 0.35 | CCOc1ccccc1O[C@@H]1CCCN(c2cccc(NC(=O)CCc3ccc(C(C)(C)C(=O)O)cc3)n2)C1 [Example 70, (R)-2-(4-(3-((6-(3-(2-ethoxyphenoxy)piperidin-1-yl)pyridin-2-yl)amino)-3-oxopropyl)phenyl)-2-methylpropanoic acid]
21 | 0.16 | CCOc1ccccc1O[C@@H]1CCCN(c2cncc(NC(=O)C3CCN(c4ccc(C(=O)O)cn4)C3)n2)C1 (stereo partly drawn) [Example 87, 6-(3-((6-((R)-3-(2-ethoxyphenoxy)piperidin-1-yl)pyrazin-2-yl)carbamoyl)pyrrolidin-1-yl)nicotinic acid]
22 | 0.77 | CCOc1ccccc1O[C@@H]1CCCN(c2cncc(NC(=O)C(C)(C)c3ccc(C(C)(C)C(=O)O)cc3)n2)C1 [Example 39, (R)-2-(4-(1-((6-(3-(2-ethoxyphenoxy)piperidin-1-yl)pyrazin-2-yl)amino)-2-methyl-1-oxopropan-2-yl)phenyl)-2-methylpropanoic acid]
23 | 0.14 | CCOc1ccccc1O[C@@H]1CCCN(c2cncc(NC(=O)CCC34CCC(C(=O)O)(CC3)CC4)n2)C1 [Example 117, (R)-4-(3-((6-(3-(2-ethoxyphenoxy)piperidin-1-yl)pyrazin-2-yl)amino)-3-oxopropyl)bicyclo[2.2.2]octane-1-carboxylic acid]
24 | 1.2 | CCOc1ccccc1O[C@@H]1CCCN(c2cncc(NC(=O)C3CCN(c4ncc(C(=O)O)cn4)CC3)n2)C1 [Example 75, (R)-2-(4-((6-(3-(2-ethoxyphenoxy)piperidin-1-yl)pyrazin-2-yl)carbamoyl)piperidin-1-yl)pyrimidine-5-carboxylic acid]
25 | 0.13 | CCOc1cccnc1O[C@@H]1CCCN(c2cncc(NC(=O)[C@@H]3CCCN(c4cccc(CC(C)(C)C(=O)O)c4)C3)n2)C1 [Example 76]
